Values quoted from earlier work in patent publication US20140303128A1, “TRANSMUCOSAL HORMONE DELIVERY SYSTEM” (priority 2013, published 2014).

Assays:
[1] = pH 6.8
[2] = smoking a cigarette (WO 03/055486 A1)

CN1CCCC1c1cccnc1 (centres unmarked) [nicotine]
nicotine in the free base form [1]: about 10%
time to peak of plasma nicotine levels [2]: about 10 minutes
